Laboratory results taken from US20240150356A1, “Pyrimidine amide compounds and use thereof” (ALPHALA CO., LTD., priority 2019, published 2024).
Like-named read-outs stand apart in the source and are kept apart here.

Key:
Assay type in all cases: cell-based
[1] = tested on: SW480 (colon adenocarcinoma cell line); assay: In vitro MTS cell viability assay (NCI-60 methodology), SW480; details: Homo sapiens, SW480 cells, read-out: SW480 LC50
Method: (§1) The cell viability measurement is based on the NCI-60 screening methodology (Nat. Rev. Cancer 6, 813-823, 2006). Briefly, cells are inoculated into 96-well plates at the optimal plating density. After 24 h, one of the two plates for Hep3B cell line is processed to determine a time zero cell viability (Tz) by MTS assay (Promega). Compounds are added over a 2-fold serial dilution to provide a total five drug concentrations plus DMSO control. Plates are incubated for a further 2 days, then measured cell viability by MTS assay [control growth (C) and test growth in the presence of drug at the five concentration levels (Ti)]. The LC50 is calculated from [(Ti−Tz)/Tz]×100=−50, which is the drug concentration resulting in a 50% reduction at the end of the drug treatment as compared to that at the beginning.
(§2) The compounds prepared in Tables 1-10 were tested in three in vitro assays, and the results are shown in Tables 1-10 for Hep3B and Table 11 for SW480 and NCI-H460 shown below. Herein, Hep3B refers to hepatocellular carcinoma cell line, SW480 refers to colon adenocarcinoma cell line, and NCI-H460 refers to human lung cancer cell line.
(§3) Shown in Tables 11 are in vitro activities of exemplary compounds of formula (I).

[2] = tested on: NCI-H460 (human lung cancer cell line); assay: In vitro MTS cell viability assay (NCI-60 methodology), NCI-H460; details: NCI-H460 cells, read-out: NCI-H460 LC50
Method: as §1, §2, §3

[3] = tested on: Hep3B cells (hepatocellular carcinoma cell line); assay: In vitro MTS cell viability assay (NCI-60 methodology), Hep3B; details: Homo sapiens, 48 h, 2 days drug incubation, 50% reduction vs time zero, read-out: Hep3B LC50
Summary of the method: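 Hep3B cells given five 2-fold dilutions of compound for 2 days, with viability by MTS measured at time zero and at end. LC50 is the concentration giving a 50% fall in viable cells relative to the start of treatment, per NCI-60 formula.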

Row | SMILES | CC50 [1] | CC50 [2] | LC50 ([3]; Table 6, MTS) | LC50 ([3]; Table 5, MTS) | LC50 ([3]; Table 10, MTS) | LC50 ([3]; Table 4, MTS)
1 | CCOCCOCCOc1ccc(-c2nc(NC(=O)c3ccc([N+](=O)[O-])s3)c3cnn(-c4ccc(Cl)cc4)c3n2)cn1 [Compound 6-53, N-(1-(4-chlorophenyl)-6-(6-(2-(2-ethoxyethoxy)ethoxy)pyridin-3-yl)-1H-pyrazolo[3,4-d]pyrimidin-4-yl)-5-nitrothiophene-2-carboxamide] | 1040 nM | 1090 nM | 130 nM | – | – | –
2 | CN(C)CCOc1ccc(-c2nc(NC(=O)c3ccc([N+](=O)[O-])s3)c3cnn(-c4ccc(F)cc4)c3n2)cn1 [Compound 6-130, N-(6-(6-(2-(dimethylamino)ethoxy)pyridin-3-yl)-1-(4-fluorophenyl)-1H-pyrazolo[3,4-d]pyrimidin-4-yl)-5-nitrothiophene-2-carboxamide] | 2900 nM | 3810 nM | 260 nM | – | – | –
3 | O=C(Nc1nc(-c2ccc(Cl)nc2)nc2c1cnn2-c1ccccc1)c1ccc([N+](=O)[O-])s1 [Compound 5-31, N-(6-(6-chloropyridin-3-yl)-1-phenyl-1H-pyrazolo[3,4-d]pyrimidin-4-yl)-5-nitrothiophene-2-carboxamide] | 860 nM | 410 nM | – | 100 nM | – | –
4 | O=C(Nc1nc(-c2ccc(OC(F)(F)F)cc2)nc2c1cnn2-c1ccccc1)c1ccc([N+](=O)[O-])s1 [Compound 5-40, 5-nitro-N-(1-phenyl-6-(4-(trifluoromethoxy)phenyl)-1H-pyrazolo[3,4-d]pyrimidin-4-yl)thiophene-2-carboxamide] | 5420 nM | 930 nM | – | 430 nM | – | –
5 | O=C(Nc1nc(-c2ccc(Cl)cc2Cl)nc2c1cnn2-c1ccccc1)c1ccc([N+](=O)[O-])s1 [Compound 5-49] | 3750 nM | 1220 nM | – | 270 nM | – | –
6 | COc1ccc(-n2ncc3c(NC(=O)c4ccc([N+](=O)[O-])s4)nc(-c4ccc(F)cc4)nc32)cc1 [Compound 6-18, N-(6-(4-fluorophenyl)-1-(4-methoxyphenyl)-1H-pyrazolo[3,4-d]pyrimidin-4-yl)-5-nitrothiophene-2-carboxamide] | 1240 nM | 270 nM | 180 nM | – | – | –
7 | O=C(Nc1nc(N2CCC(F)(F)C2)nc2c1cnn2-c1ccccc1)c1ccc([N+](=O)[O-])s1 [Compound 5-6, N-(6-(3,3-difluoropyrrolidin-1-yl)-1-phenyl-1H-pyrazolo[3,4-d]pyrimidin-4-yl)-5-nitrothiophene-2-carboxamide] | 1960 nM | 1460 nM | – | 530 nM | – | –
8 | CCOCCOCCOc1ccc(-c2nc(NC(=O)c3ccc([N+](=O)[O-])s3)c3cnn(-c4cccc(Cl)c4)c3n2)cn1 [Compound 6-45, N-(1-(3-chlorophenyl)-6-(6-(2-(2-ethoxyethoxy)ethoxy)pyridin-3-yl)-1H-pyrazolo[3,4-d]pyrimidin-4-yl)-5-nitrothiophene-2-carboxamide] | 580 nM | 570 nM | 220 nM | – | – | –
9 | CCOc1ccc(-c2nc(NC(=O)c3ccc([N+](=O)[O-])s3)c3cnn(C4CCCCC4)c3n2)cn1 [Compound 10-23, N-(1-cyclohexyl-6-(6-ethoxypyridin-3-yl)-1H-pyrazolo[3,4-d]pyrimidin-4-yl)-5-nitrothiophene-2-carboxamide] | 1660 nM | 3010 nM | – | – | 570 nM | –
10 | O=C(Nc1nc(-c2ccc(F)c(F)c2)nc2c1cnn2C1CCCCC1)c1ccc([N+](=O)[O-])s1 [Compound 10-40, N-(1-cyclohexyl-6-(3,4-difluorophenyl)-1H-pyrazolo[3,4-d]pyrimidin-4-yl)-5-nitrothiophene-2-carboxamide] | 1040 nM | 1160 nM | – | – | 320 nM | –
11 | O=C(Nc1nc(-c2ccc(F)nc2)nc2c1cnn2-c1ccccc1)c1ccc([N+](=O)[O-])s1 [Compound 5-28, N-(6-(6-fluoropyridin-3-yl)-1-phenyl-1H-pyrazolo[3,4-d]pyrimidin-4-yl)-5-nitrothiophene-2-carboxamide] | 590 nM | 280 nM | – | 130 nM | – | –
12 | O=C(Nc1nc(N2CCC(F)(F)C2)nc2c1cnn2-c1ccc(OC(F)(F)F)cc1)c1ccc([N+](=O)[O-])s1 [Compound 6-85, N-(6-(3,3-difluoropyrrolidin-1-yl)-1-(4-(trifluoromethoxy)phenyl)-1H-pyrazolo[3,4-d]pyrimidin-4-yl)-5-nitrothiophene-2-carboxamide] | 680 nM | 560 nM | 200 nM | – | – | –
13 | Cc1csc2c(NC(=O)c3ccc([N+](=O)[O-])s3)nc(-c3cccc(OC(F)(F)F)c3)nc12 [Compound 4-5, N-(7-methyl-2-(3-(trifluoromethoxy)phenyl)thieno[3,2-d]pyrimidin-4-yl)-5-nitrothiophene-2-carboxamide] | 3510 nM | 2450 nM | – | – | – | 790 nM
14 | COc1ccc(-n2ncc3c(NC(=O)c4ccc([N+](=O)[O-])s4)nc(-c4ccc(F)nc4)nc32)cc1 [Compound 6-19, N-(6-(6-fluoropyridin-3-yl)-1-(4-methoxyphenyl)-1H-pyrazolo[3,4-d]pyrimidin-4-yl)-5-nitrothiophene-2-carboxamide] | 450 nM | 220 nM | 60 nM | – | – | –
15 | O=C(Nc1nc(-c2ccc(N3CCCCC3)nc2)nc2c1cnn2-c1ccccc1)c1ccc([N+](=O)[O-])s1 [Compound 5-42, 5-nitro-N-(1-phenyl-6-(6-(piperidin-1-yl)pyridin-3-yl)-1H-pyrazolo[3,4-d]pyrimidin-4-yl)thiophene-2-carboxamide] | 890 nM | 1670 nM | – | 510 nM | – | –
16 | O=C(Nc1nc(-c2ccc(Cl)cc2F)nc2c1cnn2-c1ccccc1)c1ccc([N+](=O)[O-])s1 [Compound 5-47, N-(6-(4-chloro-2-fluorophenyl)-1-phenyl-1H-pyrazolo[3,4-d]pyrimidin-4-yl)-5-nitrothiophene-2-carboxamide] | 610 nM | 290 nM | – | 130 nM | – | –
17 | CN(C)CCOc1nc(NC(=O)c2ccc([N+](=O)[O-])s2)c2cnn(-c3ccc(C(C)(C)C)cc3)c2n1 [Compound 6-58, N-(1-(4-(tert-butyl)phenyl)-6-(2-(dimethylamino)ethoxy)-1H-pyrazolo[3,4-d]pyrimidin-4-yl)-5-nitrothiophene-2-carboxamide] | 4090 nM | 3970 nM | 690 nM | – | – | –
18 | O=C(Nc1nc(-c2ccc3c(c2)OCO3)nc2c1cnn2-c1cccc(Cl)c1)c1ccc([N+](=O)[O-])s1 [Compound 6-39, N-(6-(benzo[d][1,3]dioxol-5-yl)-1-(3-chlorophenyl)-1H-pyrazolo[3,4-d]pyrimidin-4-yl)-5-nitrothiophene-2-carboxamide] | 3180 nM | 1070 nM | 270 nM | – | – | –
19 | O=C(Nc1nc(-c2ccc(F)nc2)nc2c1cnn2-c1ccc(F)cc1)c1ccc([N+](=O)[O-])s1 [Compound 6-116, N-(1-(4-fluorophenyl)-6-(6-fluoropyridin-3-yl)-1H-pyrazolo[3,4-d]pyrimidin-4-yl)-5-nitrothiophene-2-carboxamide] | 550 nM | 500 nM | 90 nM | – | – | –
20 | Cc1ccc(-n2ncc3c(NC(=O)c4ccc([N+](=O)[O-])s4)nc(-c4ccc(F)cc4F)nc32)cc1 [Compound 6-11] | 670 nM | 330 nM | 280 nM | – | – | –
21 | N#Cc1ccc(-c2nc(NC(=O)c3ccc([N+](=O)[O-])s3)c3cnn(-c4ccccc4)c3n2)cc1 [Compound 5-32, N-(6-(4-cyanophenyl)-1-phenyl-1H-pyrazolo[3,4-d]pyrimidin-4-yl)-5-nitrothiophene-2-carboxamide] | 2770 nM | 1160 nM | – | 110 nM | – | –
22 | O=C(Nc1nc(-c2ccc(F)nc2)nc2c1cnn2C1CCCCC1)c1ccc([N+](=O)[O-])s1 [Compound 10-14, N-(1-cyclohexyl-6-(6-fluoropyridin-3-yl)-1H-pyrazolo[3,4-d]pyrimidin-4-yl)-5-nitrothiophene-2-carboxamide] | 1710 nM | 910 nM | – | – | 890 nM | –
23 | O=C(Nc1nc(-c2ccc(Cl)nc2)nc2c1cnn2C1CCCCC1)c1ccc([N+](=O)[O-])s1 [Compound 10-18, N-(6-(6-chloropyridin-3-yl)-1-cyclohexyl-1H-pyrazolo[3,4-d]pyrimidin-4-yl)-5-nitrothiophene-2-carboxamide] | 950 nM | 850 nM | – | – | 680 nM | –
24 | O=C(Nc1nc(N2CCC[C@H]2COc2ccccc2)nc2c1cnn2-c1ccc(F)cc1)c1ccc([N+](=O)[O-])s1 [Compound 6-106, (S)—N-(1-(4-fluorophenyl)-6-(2-(phenoxymethyl)pyrrolidin-1-yl)-1H-pyrazolo[3,4-d]pyrimidin-4-yl)-5-nitrothiophene-2-carboxamide] | 500 nM | 1650 nM | 430 nM | – | – | –
